According to patent US7115658B2 (priority 2002, dated 2006):

These molecules were tested against T1, Recombinant HCV polymerase (Hepatitis C virus genotype 1b, UniProt P26663) (assay: HCV Polymerase Inhibition Assay). Settings: primer/template-directed transcription, 30 minutes at 30° C.; category symbol.
T1 construct: 2.5 pmoles (0.15 μg) HCV polymerase protein
Assay type: biochemical
In short: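 Recombinant genotype 1b polymerase (2.5 pmol) extended biotin-dG12 on poly(rC)300 with 1 μM GTP plus α-32P-GTP, pH 7.2, 30 min at 30 °C, 1% DMSO final; DE-filter-bound product counted. IC50 fitted from triplicate cpm, refitted with enzyme-concentration (30 nM) tight-binding equation when below 200 nM.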

T1 sequence (P26663 2420-3010): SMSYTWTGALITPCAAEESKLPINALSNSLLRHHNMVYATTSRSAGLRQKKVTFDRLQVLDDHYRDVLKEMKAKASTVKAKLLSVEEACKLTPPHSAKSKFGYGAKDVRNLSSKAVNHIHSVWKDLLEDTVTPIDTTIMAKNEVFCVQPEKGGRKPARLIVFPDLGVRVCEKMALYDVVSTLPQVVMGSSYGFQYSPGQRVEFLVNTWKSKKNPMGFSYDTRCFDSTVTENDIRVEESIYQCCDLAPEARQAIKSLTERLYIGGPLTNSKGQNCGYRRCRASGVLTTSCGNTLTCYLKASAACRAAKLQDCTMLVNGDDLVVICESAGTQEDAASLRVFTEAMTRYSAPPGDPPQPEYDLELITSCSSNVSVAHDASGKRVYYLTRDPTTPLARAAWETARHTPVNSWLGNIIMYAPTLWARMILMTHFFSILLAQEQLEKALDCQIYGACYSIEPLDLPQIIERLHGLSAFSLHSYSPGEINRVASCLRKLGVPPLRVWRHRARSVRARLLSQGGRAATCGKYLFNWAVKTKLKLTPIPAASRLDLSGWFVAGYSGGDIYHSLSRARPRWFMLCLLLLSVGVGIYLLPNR

`COc1cc(OC)c(CCC2(C3CCCC3)CC(O)=C(Sc3nc4ccc(C(=O)O)cc4[nH]3)C(=O)O2)cc1Cl` (stereo not drawn) [Example 99, 2-({6-[2-(5-chloro-2,4-dimethoxyphenyl)ethyl]-6-cyclopentyl-4-hydroxy-2-oxo-5,6-dihydro-2H-pyran-3-yl}thio)-1H-benzimidazole-5-carboxylic acid] and `CCOC(=O)c1cnc(SC2=C(O)CC(CCc3cc(Cl)c(OC)cc3OC)(C3CCCC3)OC2=O)[nH]1` (stereo not drawn) [Example 100, Ethyl 2-({6-[2-(5-chloro-2,4-dimethoxyphenyl)ethyl]-6-cyclopentyl-4-hydroxy-2-oxo-5,6-dihydro-2H-pyran-3-yl}thio)-1H-imidazol-4-carboxylate] cannot be ordered by IC50: under 1 µM for the first, under 1 µM for the second.

`COc1ccc(CCC2(C3CCCC3)CC(O)=C(Sc3nc4nc(C)cc(C)n4n3)C(=O)O2)cc1Cl` (stereo not drawn) [Example 101, 6-[2-(3-Chloro-4-methoxy-phenyl)-ethyl]-6-cyclopentyl-3-(5,7-dimethyl-[1,2,4]triazolo[1,5-a]pyrimidin-2-ylsulfanyl)-4-hydroxy-5,6-dihydro-pyran-2-one] and `COc1ccc(CCC2(C3CCCC3)CC(O)=C(Sc3nnc(C)s3)C(=O)O2)cc1Cl` (stereo not drawn) [Example 125, 6-[2-(3-Chloro-4-methoxy-phenyl)-ethyl]-6-cyclopentyl-4-hydroxy-3-(5-methyl-[1,3,4]thiadiazol-2-ylsulfanyl)-5,6-dihydro-pyran-2-one] cannot be ordered by IC50: under 1 µM for the first, under 1 µM for the second.

`COc1ccc(CCC2(C3CCCC3)CC(O)=C(Sc3ccccc3)C(=O)O2)cc1Cl` (stereo not drawn) [Example 102, 6-[2-(3-Chloro-4-methoxy-phenyl)-ethyl]-6-cyclopentyl-4-hydroxy-3-phenylsulfanyl-5,6-dihydro-pyran-2-one] and `COc1ccc(CCC2(C3CCCC3)CC(O)=C(Sc3ccc(O)cc3)C(=O)O2)cc1Cl` (stereo not drawn) [Example 126, 6-[2-(3-Chloro-4-methoxy-phenyl)-ethyl]-6-cyclopentyl-4-hydroxy-3-(4-hydroxy-phenylsulfanyl)-5,6-dihydro-pyran-2-one] cannot be ordered by IC50: under 1 µM for the first, under 1 µM for the second.

First: COc1ccc(CCC2(C3CCCC3)CC3=C(CCCO3)C(=O)O2)c(OC)c1 (stereo not drawn) [Example 103, 7-Cyclopentyl-7-[2-(2,4-dimethoxyphenyl)ethyl]-3,4,7,8-tetrahydro-2H,5H-pyrano[4,3-b]pyran-5-one]
Second: COc1cc(OC)c(CCC2(C3CCCC3)CC(O)=C(SC3=NCCCN3)C(=O)O2)cc1Cl (stereo not drawn) [Example 110, 6-[2-(5-Chloro-2,4-dimethoxyphenyl)ethyl]-6-cyclopentyl-4-hydroxy-3-(1,4,5,6-tetrahydropyrimidin-2-ylthio)-5,6-dihydro-2H-pyran-2-one]
The IC50 of the first is higher: over 50 µM for the first, under 1 µM for the second. The second is the more potent here.

First: C=CCOCCC1(C2CCCC2)CC(O)=C(Sc2nc3nc(C)cc(C)n3n2)C(=O)O1 (stereo not drawn) [Example 104, 6-(2-Allyloxy-ethyl)-6-cyclopentyl-3-(5,7-dimethyl-[1,2,4]triazolo[1,5-a]pyrimidin-2-ylsulfanyl)-4-hydroxy-5,6-dihydro-pyran-2-one]
Second: Cc1cc(C)n2nc(SC3=C(O)CC(CCc4ccc(OCc5ccccc5)cc4)(C4CCCC4)OC3=O)nc2n1 (stereo not drawn) [Example 122, 6-{2-[4-(Benzyloxy)phenyl]ethyl}-6-cyclopentyl-3-[(5,7-dimethyl[1,2,4]triazolo[1,5-a]pyrimidin-2-yl)thio]-4-hydroxy-5,6-dihydro-2H-pyran-2-one]
The IC50 of the first is higher: 10 to 50 µM for the first, under 1 µM for the second. The second is the more potent here.

`COc1cc(OC)c(CCC2(C3CCCC3)CC(O)=C(Sc3nc(O)c4cc[nH]c4n3)C(=O)O2)cc1Cl` (stereo not drawn) [Example 105, 6-[2-(5-Chloro-2,4-dimethoxyphenyl)ethyl]-6-cyclopentyl-4-hydroxy-3-[(4-hydroxy-7H-pyrrolo[2,3-d]pyrimidin-2-yl)thio]-5,6-dihydro-2H-pyran-2-one] and `COc1cc(OC)c(CCC2(C3CCCC3)CC(O)=C(Sc3cnccn3)C(=O)O2)cc1Cl` (stereo not drawn) [Example 108, 6-[2-(5-Chloro-2,4-dimethoxyphenyl)ethyl]-6-cyclopentyl-4-hydroxy-3-(pyrazin-2-ylthio)-5,6-dihydro-2H-pyran-2-one] cannot be ordered by IC50: under 1 µM for the first, under 1 µM for the second.

`CCn1nnnc1SC1=C(O)CC(CCc2cc(Cl)c(OC)cc2OC)(C2CCCC2)OC1=O` (stereo not drawn) [Example 106, 6-[2-(5-Chloro-2,4-dimethoxyphenyl)ethyl]-6-cyclopentyl-3-[(1-ethyl-1H-tetraazol-5-yl)thio]-4-hydroxy-5,6-dihydro-2H-pyran-2-one] and `COc1cc(OC)c(CCC2(C3CCCC3)CC(O)=C(Sc3nnnn3CCN(C)C)C(=O)O2)cc1Cl` (stereo not drawn) [Example 107, 6-[2-(5-Chloro-2,4-dimethoxyphenyl)ethyl]-6-cyclopentyl-3-({1-[2-(dimethylamino)ethyl]-1H-tetraazol-5-yl}thio)-4-hydroxy-5,6-dihydro-2H-pyran-2-one] cannot be ordered by IC50: under 1 µM for the first, under 1 µM for the second.

`COc1cc(OC)c(CCC2(C3CCCC3)CC(O)=C(Sc3nccs3)C(=O)O2)cc1Cl` (stereo not drawn) [Example 109, 6-[2-(5-Chloro-2,4-dimethoxyphenyl)ethyl]-6-cyclopentyl-4-hydroxy-3-(1,3-thiazol-2-ylthio)-5,6-dihydro-2H-pyran-2-one] and `COc1ccc(CCC2(C3CCCC3)CC(O)=C(Sc3nc[nH]n3)C(=O)O2)cc1Cl` (stereo not drawn) [Example 124, 6-[2-(3-Chloro-4-methoxy-phenyl)-ethyl]-6-cyclopentyl-4-hydroxy-3-(1 H[1,2,4]triazol-3-ylsulfanyl)-5,6-dihydro-pyran-2-one] cannot be ordered by IC50: under 1 µM for the first, under 1 µM for the second.

First: COc1ccc(CCC2(C3CCCC3)CC(O)=C(Sc3n[nH]c(-c4ccncc4)n3)C(=O)O2)cc1 (stereo not drawn) [Example 111, 6-Cyclopentyl-4-hydroxy-6-[2-(4-methoxyphenyl)ethyl]-3-[(5-pyridin-4-yl-1H-1,2,4-triazol-3-yl)thio]-5,6-dihydro-2H-pyran-2-one]
Second: COc1ccc(CCC2(C3CCCC3)CC(O)=C(Sc3nc(N)n[nH]3)C(=O)O2)cc1 (stereo not drawn) [Example 115, 3-[(3-Amino-1H-1,2,4-triazol-5-yl)thio]-6-cyclopentyl-4-hydroxy-6-[2-(4-methoxyphenyl)ethyl]-5,6-dihydro-2H-pyran-2-one]
The IC50 of the first is lower: under 1 µM for the first, 1 to 10 µM for the second. The first is the more potent here.

Compared with `COc1ccc(CCC2(C3CCCC3)CC(O)=C(Sc3nc(C)c(CC(=O)O)s3)C(=O)O2)cc1` (stereo not drawn) [Example 112, [2-({6-Cyclopentyl-4-hydroxy-6-[2-(4-methoxyphenyl)ethyl]-2-oxo-5,6-dihydro-2H-pyran-3-yl}thio)-4-methyl-1,3-thiazol-5-yl]acetic acid], `CCOC(=O)c1c[nH]c(SC2=C(O)CC(CCc3ccc(OC)cc3)(C3CCCC3)OC2=O)n1` (stereo not drawn) [Example 119, Ethyl 2-({6-cyclopentyl-4-hydroxy-6-[2-(4-methoxyphenyl)ethyl]-2-oxo-5,6-dihydro-2H-pyran-3-yl}thio)-1H-imidazole-4-carboxylate] is higher in IC50: under 1 µM for the first, 1 to 10 µM for the second. The first is the more potent here.

`COc1ccc(CCC2(C3CCCC3)CC(O)=C(Sc3nc(O)c4cc[nH]c4n3)C(=O)O2)cc1` (stereo not drawn) [Example 113, 6-Cyclopentyl-4-hydroxy-3-[(4-hydroxy-7H-pyrrolo[2,3-d]pyrimidin-2-yl)thio]-6-[2-(4-methoxyphenyl)ethyl]-5,6-dihydro-2H-pyran-2-one] and `O=C1OC(CCc2ccc(OCc3ccccc3)cc2)(C2CCCC2)CC(O)=C1Sc1nc(O)c2cc[nH]c2n1` (stereo not drawn) [Example 123, 6-{2-[4-(Benzyloxy)phenyl]ethyl}-6-cyclopentyl-4-hydroxy-3-[(4-hydroxy-7H-pyrrolo[2,3-d]pyrimidin-2-yl)thio]-5,6-dihydro-2H-pyran-2-one] cannot be ordered by IC50: under 1 µM for the first, under 1 µM for the second.

`COc1ccc(CCC2(C3CCCC3)CC(O)=C(Sc3nnnn3-c3ccc(O)cc3)C(=O)O2)cc1` (stereo not drawn) [Example 114, 6-Cyclopentyl-4-hydroxy-3-([1-(4-hydroxyphenyl)-1H-tetraazol-5-yl]thio)-6-[2-(4-methoxyphenyl)ethyl]-5,6-dihydro-2H-pyran-2-one] and `CCn1nnnc1SC1=C(O)CC(CCc2ccc(OC)cc2)(C2CCCC2)OC1=O` (stereo not drawn) [Example 121, 6-Cyclopentyl-3-[(1-ethyl-1H-tetraazol-5-yl)thio]-4-hydroxy-6-[2-(4-methoxyphenyl)ethyl]-5,6-dihydro-2H-pyran-2-one] cannot be ordered by IC50: under 1 µM for the first, under 1 µM for the second.

`COc1ccc(CCC2(C3CCCC3)CC(O)=C(Sc3nnnn3CCN(C)C)C(=O)O2)cc1` (stereo not drawn) [Example 116, 6-Cyclopentyl-3-({1-[2-(dimethylamino)ethyl]-1H-tetraazol-5-yl}thio)-4-hydroxy-6-[2-(4-methoxyphenyl)ethyl]-5,6-dihydro-2H-pyran-2-one] and `COc1ccc(CCC2(C3CCCC3)CC(O)=C(Sc3nnc(O)n3C)C(=O)O2)cc1` (stereo not drawn) [Example 117, 6-Cyclopentyl-4-hydroxy-3-[(5-hydroxy-4-methyl-4H-1,2,4-triazol-3-yl)thio]-6-[2-(4-methoxyphenyl)ethyl]-5,6-dihydro-2H-pyran-2-one] fall in the same range of IC50: 1 to 10 µM for the first, 1 to 10 µM for the second.

`COc1ccc(CCC2(C3CCCC3)CC(O)=C(Sc3nc4nc[nH]c4c(=O)[nH]3)C(=O)O2)cc1` (stereo not drawn) [Example 118, 2-((6-Cyclopentyl-4-hydroxy-6-[2-(4-methoxyphenyl)ethyl]-2-oxo-5,6-dihydro-2H-pyran-3-yl}thio)-1,7-dihydro-6H-purin-6-one] and `COc1ccc(CCC2(C3CCCC3)CC(O)=C(Sc3nc(N)c4cn[nH]c4n3)C(=O)O2)cc1` (stereo not drawn) [Example 120, 3-[(4-Amino-1H-pyrazolo[3,4-d]pyrimidin-6-yl)thio]-6-cyclopentyl-4-hydroxy-6-[2-(4-methoxyphenyl)ethyl]-5,6-dihydro-2H-pyran-2-one] cannot be ordered by IC50: under 1 µM for the first, under 1 µM for the second.

`COc1ccc(CCC2(C3CCCC3)CC(O)=C(Sc3nc4ccccc4o3)C(=O)O2)cc1Cl` (stereo not drawn) [Example 127, 3-(Benzooxazol-2-ylsulfanyl)-6-[2-(3-chloro-4-methoxy-phenyl)-ethyl]-6-cyclopentyl-4-hydroxy-5,6-dihydro-pyran-2-one] and `COc1ccc(CCC2(C3CCCC3)CC(O)=C(Sc3nc4ccccc4[nH]3)C(=O)O2)cc1Cl` (stereo not drawn) [Example 128, 3-(1H-Benzoimidazol-2-ylsulfanyl)-6-[2-(3-chloro-4-methoxy-phenyl)-ethyl]-6-cyclopentyl-4-hydroxy-5,6-dihydro-pyran-2-one] cannot be ordered by IC50: under 1 µM for the first, under 1 µM for the second.
